From patent US10300070B2, “Metabolically-activated drug conjugates to overcome resistance in cancer therapy” (The Brigham and Women's Hospital, Inc., priority 2014, dated 2019)

What was measured:
Assay type in all cases: cell-based
CD44v6 and EGFR = assay: CD44/CD44v6-EGFR immunocomplex by immunoprecipitation and western blot; conditions: MDA-MB-231 cells; docetaxel sublethal dose (10 nM), with or without erlotinib
Description: Laemli sample buffer was prepared as a 5× solution containing □-mercaptoethanol as a reducing agent. Immunoprecipitaion was performed using both classic and direct IP kits purchased from Pierce following manufacturer protocols (Thermo Fisher inc. Rockford, Ill.). Briefly, cell lysates were prepared using IP/Lysis Buffer (Thermo Fisher inc. Rockford, Ill.) in the presence of 2× HALT protease/phosphatase inhibitor cocktail (Thermo Fisher inc. Rockford, Ill.). […] Direct immunoprecipitation was performed following manufacturer protocol. […] Protein samples were resolved by SDS-PAGE and transferred to PVDF membranes prior to incubation at 4 C with indicated primary antibodies; NHE-1, GLUT-1 and cytoplasmic domain-targeting EGFR were purchased from Santa Cruz Biotech (Santa Cruz, Calif.). p70S6K and pp70S6K, mTOR and pMTOR, pERM and ERM, Ezrin and pEzrin, pAKT and AKT, pPRAS40 and PRAS40, EGFR and pEGFR antibodies cleaved caspase-3 and β-Actin were purchased from cell signaling technology (Cambridge, Mass.). EGFR and CD44v6 neutralizing antibodies were purchased from R&D (Minneapolis, Minn.). […] Optical densities of western blots were measured using ImageJ open source software (National Institutes of Health) and validated using Adobe CS5.

MDA-MB-231 parent or DTC = assay: Glucose uptake (2-NBDG) determined by FACS; conditions: sub-lethal docetaxel (25 nM), MDA-MB-231
Description: MDA-MB-231 (ATCC), MDA-MB-468 and 4T-1 mammary carcinoma cells (ATCC) were cultured in DMEM containing 10% Fetal Bovine Serum (FBS) at 37 C and 5% CO2. DU145 and DU145-TxR were provided by A. Mizokami^63 and cultured in DMEM containing 10% FBS, resistant line included 100 nM paclitaxel in the culture media. During treatments with chemotherapeutics, cells were grown to semi-confluence and treated with indicated concentrations of chemotherapy in serum-containing medium for indicated time points. When small molecule inhibitors were included in treatments, they were added simultaneously with chemotherapy. For siRNA gene knockdown, cells were transfected with silencer-select siRNA plasmids (Ambion, Invitrogen, Grand Island, N.Y.) pan-CD44(1) (s2682) panCD44(2) (s2681), siHIF1A (s6539) using lipofectamine 2000 (Invitrogen, Carlsbad Calif.) following manufacturer protocol and cultured for 72 hours prior to treatment. Scrambled siRNA was used as a control. For chemotherapy treatment experiments: Cancer cells were plated at a density of 0.5-1×10^5 cells/ml and allowed to adhere for 24-48 hr. When cells reached ˜70% confluency they were treated with cytotoxics at indicated concentrations for 24-48 hours and utilized for subsequent assays. For experiments in which a shorter incubation was used (i.e. 15 min-4 hours) fresh media was added 24 hours prior to addition of chemotherapy suspended to stock concentration in PBS. For generation of DTC: Cells were treated for 48 hours with chemotherapy. Following washes with PBS, adherent cells were trypsinized and re-plated at a density of 1.5-2×10^5 cells/ml and cultured in serum-containing medium. After 24 hours incubation, floating cells were removed and remaining cells were washed with 1× PBS and considered as chemotherapy-tolerant cells. A population of drug naïve parent cells were always cultured alongside DTC and fresh media was added at every interval that experimental population (DTC) received fresh media.
In vitro detection of glucose uptake was performed using 2-(N-7-Nitrobenz-2-oxa-1,3-diazol-4-yl)Amino)-2-Deoxyglucose (2-NBDG) (Invitrogen, Carlsbad Calif.), dissolved in DMSO to 50 mM. Cells were pre-treated with kinase inhibitors or vehicle for 3 hours in glucose- and phenol red-free media before addition of 50 μM 2-NBDG and subsequently read by FACS ex/em 488/535 nm. ROS was determined by pre-loading cells with CM-DCFDA (1 μM), washed 2 times with PBS and subsequently treated with H2O2 or vehicle; when kinase inhibitors were included in treatment, cells were first incubated with inhibitor for 3 hours prior to CM-DCFDA loading. Fluorescence was then determined by FACS ex/em 488/535 nm. For the following assays, cells were trypsinized and counted by Nexcelom cell counter (Lawrence, Mass.) prior to being subjected to analysis in order to achieve a quantitative value per cell: Reduced glutathione was determined using a colorimetric glutathione recycling system by DTNB following manufacturer protocol (Biovision, Milpitas Calif.). ATP analysis was performed using the ATP colorimetric analysis kit (Biovision) according to manufacturer protocol. Reductive stress was detected using the Enzo nitroreductase hypoxia kit (Enzo Life Sciences, Ann Arbor Mich.) following manufacturer protocol and visualized by fluorescent microscopy; a set of non-docetaxel-treated control cells loaded with fluorescent probe were compared against docetaxel-treated cells to derive a % redox stress increase which was calculated as fluorescence intensity of nitroreductase probe per cell and expressed as increase from vehicle. Protein synthesis was measured by two means 1. L-azidohomoalanine amino acid analog of methionine containing an azide moiety was added to cultured cells (parent or DTC) for 3 hours which is incorporated into proteins during active protein synthesis. […]

MDA-MB-231 cells = assay: Single cell, real-time assessment of mitochondrial ROS (MitoSox); conditions: docetaxel 50 nM
Description: Single cell analysis was performed as follows: Mitosox Red (Invitrogen, Carlsbad Calif.) was incubated with live parent cells for 30 minutes (5 μM), washed and recovered in phenol red-free DMEM with 2% FBS and treated with docetaxel (50 nM). Equivalent exposure times of immunofluorescent microscopy were used at each interval which was originally set at time 0 against an unstained control cell population. Images were captured by a NIKON Eclipse TI-U microscope with a 20× ELDW or 10× or 40× Plan-Apo objective lens (Nikon, Melville N.Y.) and NIS Elements Viewer version 3.22 (Nikon, Melville N.Y.) imaging software. A negative control (non-transfected) cell subset was used to normalize background and autofluorescence following docetaxel treatment. Individual cells were tracked over time and indications of cell death were noted using a 2 TdT-Fluor In Situ apoptosis detection kit (Trevigen Gaithersburg Md.). Cells were plotted as a function of apoptosis induction (or loss of adherence to culture dish indicating cell death) and changes in Mitosox fluorescence over time as shown in main figures.

CD44 = assay: Cell surface CD44 expression by FACS; conditions: sub-lethal docetaxel (25 nM), MDA-MB-231
Description: DU145 and DU145-TxR were provided by A. Mizokami^63 and cultured in DMEM containing 10% FBS, resistant line included 100 nM paclitaxel in the culture media. During treatments with chemotherapeutics, cells were grown to semi-confluence and treated with indicated concentrations of chemotherapy in serum-containing medium for indicated time points. When small molecule inhibitors were included in treatments, they were added simultaneously with chemotherapy. […] Scrambled siRNA was used as a control. For chemotherapy treatment experiments: Cancer cells were plated at a density of 0.5-1×10^5 cells/ml and allowed to adhere for 24-48 hr. […] Following washes with PBS, adherent cells were trypsinized and re-plated at a density of 1.5-2×10^5 cells/ml and cultured in serum-containing medium. […] A population of drug naïve parent cells were always cultured alongside DTC and fresh media was added at every interval that experimental population (DTC) received fresh media.
Cells were cultured as indicated, removed from culture dishes with accutase stem-pro dissociation reagent (Invitrogen, Carlsbad Calif.) and fixed with 4% paraformaldehyde in PBS for 30 min at RT, washed twice with PBS and blocked in 10% goat serum (v/v). Whenever necessary, cells were permeabilized with 0.05% saponin in PBS. Cells were incubated with CD44-APC (BD biosciences, San Jose, Calif.) overnight at 4 C and analyzed by FACS (C6 Accuri cyomteters Inc Ann Arbor, Mich.), data analysis using FlowJo software (Tree Star Inc., Ashland Oreg.) and Accuri cFlow plus software to obtain and confirm mean fluorescent intensity (GNU.org).

With `CC(=O)O[C@@]12CO[C@@H]1C[C@H](O)[C@@]1(C)C(=O)[C@H](O)C3=C(C)[C@@H](OC(=O)[C@H](O)[C@@H](NC(=O)OC(C)(C)C)c4ccccc4)C[C@@](O)([C@@H](OC(=O)c4ccccc4)[C@H]21)C3(C)C` [docetaxel] the “immunocomplex between CD44v6 and EGFR” value (CD44v6 and EGFR) was “induced”, the “time point at which augmented glucose uptake was observed” value (MDA-MB-231 parent or DTC) was 24 h and the “time of mitochondrial ROS burst in cells which survive” value (MDA-MB-231 cells) was 4 to 8 h. The “time to induction of cell surface CD44” value (CD44) was no more than 4 h.
